From patent publication US9579406B2, “Phospholipid ether analogs as agents for detecting and locating cancer, and methods thereof” (Cellectar, Inc., priority 2004, dated 2017)
Entries after “also recorded” stand apart in the source; their conditions may differ.

Tests used:
[1] = system: PC3 human prostate cancer; experiment: Radiotherapy study in PC-3 SCID mouse xenograft model; assay type: in vivo; details: after treatment
Method: PC-3 (human prostate cancer, from ATCC) are maintained in Ham's F-12K media supplemented with 10% fetal bovine serum. Tumor cell suspension (1×10^6 cells in phosphate-buffered saline) is injected s.c. into the right flank of male SCID mice (6-8 weeks, C.B-17/IcrHsd-Prkcd^scid, Harlan). Animals are given free access to food and water, tumor growth and animal weight are monitored. Upon reaching 4-5 mm in diameter, mice will be divided into groups of 6 for therapy study.
Single injection of SF404A at Day 0
Groups: • (1) 5 study groups: 4 treatment+1 control • (2) N=6 per group • (3) 4 acute dose levels: 50, 150, 250 and 500 μCi per mouse • (4) Control group dosed with equivalent mass amount of NM404: 0 μCi per mouse (“cold” NM404)

Mammary MCF-7 = experiment: Tumor models examined with NM404 (Table 2); assay type: in vivo, Rat; details: Adenocarcinoma
From the text: (§1) NM404 has now been evaluated in 27 animal tumor models, including several lung, and it is clear that once the agent enters tumor cells, it reaches a metabolic dead end and becomes trapped. […] NM404 is also retained in spontaneous murine lung tumors (FIG. 13). Using ^125I-labeled NM404, the inventors have been able to image mammary and prostate tumors in mice in excess of 60 days. […] Imaging and tissue distribution studies performed in mouse models aimed at determining the uptake characteristics in a wide variety of tumor models are summarized in Table 2.
(§2) Although tumor retention can be explained by a lack of metabolic phospholipase enzymes in the tumor cell membranes, the exact mechanism of tumor cell uptake is unknown. […] The inventors are currently evaluating the selectivity of NM404 in a unique mouse tumor model developed at Wisconsin, wherein both preneoplastic hyperplasias and malignant adenocarcinomas form spontaneously in the mammary gland. […] If this initial observation is validated, then via genomic and or proteomic analysis the inventors may be able to identify a key genetic difference between malignant tumors and their non malignant predecessor cells. This could identify a completely new molecular therapeutic target that may be universal for all types of cancer.

Mammary Adenocarcinoma = experiment: Tumor models examined with NM404 (Table 2); assay type: in vivo, Apc/^min+ mouse
From the text: as §1, §2

Mammary SCC = experiment: Tumor models examined with NM404 (Table 2); assay type: in vivo, Apc/^min+ mouse; details: Squamous cell carcinoma
From the text: as §1, §2

[2] = system: A549 lung, PC-3 prostate, c-myc pancreatic tumors; experiment: microPET imaging in lung, prostate and pancreatic mouse tumor models; assay type: in vivo
From the text: Human pharmacokinetic studies have confirmed this finding as only 4% of the agent is cleared renally within 4 days of iv injection (majority is excreted via GI route).

[3] = MIRD extrapolation of rat tissue distribution data to permissible human dose; design: species or system human (from rat data)
From the text: Accordingly the inventors have conducted the preliminary pharmacokinetic studies in human lung cancer patients at 1 mCi. Similar extrapolative calculation of the dosimetry for ^124I-NM404 afforded a similar 2 mCi dose level again based on projected dosimetry to the adrenals and bladder wall. Preliminary human data (5 patients), however, indicate very little uptake and retention of the agent into any abdominal organ (including the bladder and adrenals) with the exception of the liver which returns to background levels within 11 days.
Dosing of radioiodinated ^124I NM404 will be based on MIRD extrapolation of the iodine-131 dosimetry data derived from this ongoing study. The ^131I-NM404 dose is currently calculated as follows: Animal biodistribution data is used to determine the percentage of injected dose/organ at varying time points. These animal data are extrapolated to man by means of MIRD formalism (MIRDOSE PC v3.1) using standard conversion factors for differences in organ mass and anatomy between rat and standard man, providing predicted human organ doses; Based on these predicted doses, the permissible mCi dose to be injected into humans is determined using the maximal doses legally permitted by RDRC regulations for specific human tissue as defined in the Federal Register (21CFR Part 361.1) e.g. whole body, blood, blood forming tissues, eye lens, gonads—3 rem/dose; any other tissue—5 rem/dose. This approach was previously used to bring both NM324 and NM404 to clinical use, resulting in a calculated dose of 1 mCi.

Melanoma B16 = experiment: Tumor models examined with NM404 (Table 2); assay type: in vivo, Mouse xenograft; details: Adenocarcinoma
From the text: as §1, §2

Liver CT-26 = experiment: Tumor models examined with NM404 (Table 2); assay type: in vivo, Mouse xenograft; details: Colorectal adenocarcinoma
From the text: as §1, §2

LuCaP prostate = experiment: Tumor models examined with NM404 (Table 2); assay type: in vivo, Mouse xenograft; details: Adenocarcinoma
From the text: as §1, §2

[4] = system: human PC-3 prostate tumor xenografts; experiment: Scintigraphy and tissue distribution in SCID mice bearing human PC-3 prostate tumor xenografts; assay type: in vivo; details: day 5
From the text: Tumor uptake, however, continued to increase up until day 5 when it reached 18% injected dose per gram of tumor. […] Tumor to background tissue ratios exceeded 4, 6.8, 23, and 9 in blood, liver, muscle, and prostate, respectively, 3 days after injection and continued to improve at 5 and 8 days. Again, although thyroid levels ranged from 26 to 54% injected dose per gram of tissue, these levels are actually quite low and represent an extremely small percentage of the injected dose when the exceedingly small mass of the organ is considered and the data are presented on a percent administered dose per organ basis.

[5] = system: non-small cell lung cancer; experiment: Planar gamma-camera scintigraphy with 131I-NM-404 in NSCLC patients; details: time points examined
Method: The preparation dispensed by the Nuclear Pharmacy will be certified as sterile and pyrogen-free. The subject will be monitored for adverse reactions during and after the infusion. Vital signs will be checked immediately after the infusion, and at 60 minute intervals up to four hours post-injection. They will be observed for adverse events throughout this time. […] Vital signs will be monitored at these times. Any adverse reactions experienced by the subjects will be recorded.

[6] = system: Walker-256 carcinosarcoma; experiment: Tissue distribution of radioactivity in rats bearing Walker-256 carcinosarcoma; assay type: in vivo, rat
TRAMP prostate tumors = experiment: Bioscan imaging of TRAMP mice prostate tumors; assay type: in vivo; details: 125I label 15 μCi, 1-8 days
Method: Following in vivo imaging of anesthetized mice, the prostate tumors were removed immediately, and imaged ex vivo on the same scanner (equipped with high resolution 1 mm collimator and 2-D acquisition and analysis software) in order to avoid tissue attenuation associated with the low energy of iodine-125 (FIG. 21). […] In an attempt to simulate bone metastases another experiment was performed wherein human PC-3 tumor cells were implanted into the tibia of immune compromised NUDE mice (n=6) according to a recent reports. Following tumor cell inoculation, mice were scanned serially by high-resolution microCT in order to monitor bone tumor development (FIG. 22). Once bone deterioration was detected, iodine-125 labeled NM404 was administered intravenously via tail vein. Mice were scanned for radioactivity and by microCT 4 days post NM404 administration. Radioactivity scans were fused with microCT scans (FIG. 23) to corroborate NM404 radioactivity and tumor location.

SMILES | time at which treatment and control tumor growth curves separate [1] | NM404 Tumor Localization (Mammary MCF-7) | NM404 Tumor Localization (Mammary Adenocarcinoma) | NM404 Tumor Localization (Mammary SCC) | time to tumor uptake ([2]; after injection) | tumor avidity ([2]; mouse, in vivo) | calculated dose for clinical use [3] | 5 rad dose to adrenals ([3]; new animal data) | 5 rad testes dose ([3]; new animal data) | NM404 Tumor Localization (Melanoma B16) | NM404 Tumor Localization (Liver CT-26) | NM404 Tumor Localization (LuCaP prostate) | tumor uptake [4] | urinary bladder radioactivity [5] | radioactivity in the tumor (peak) ([6]; 48 hours after administration) | blood levels ([6]; 120 hours) | time of peak tumor radioactivity ([6]; after administration) | uptake into prostate tumor and benign hyperplasia (TRAMP prostate tumors)
C[N+](C)(C)CCOP(=O)([O-])OCCCCCCCCCCCCCCCCCCc1ccc([125I])cc1 [Compound I-125-NM404] | 4-5 weeks | – | – | – | – | – | – | – | – | – | – | – | – | – | – | – | – | –
C[N+](C)(C)CCOP(=O)([O-])OCCCCCCCCCCCCCCCCCCc1ccc(I)cc1 [NM-404, 18-(4-iodophenyl)-octadecylphosphocholine] | – | Yes (Localization defined as >5% injected dose per gram tumor basis based on tissue distribution data) | Yes (Localization defined as >5% injected dose per gram tumor basis based on tissue distribution data) | Yes (Localization defined as >5% injected dose per gram tumor basis based on tissue distribution data) | ≤ 6 h | significant tumor avidity regardless of location in the body | 1 mCi | 2.2 mCi | 2.1 mCi | Yes (Localization defined as >5% injected dose per gram tumor basis based on tissue distribution data) | Yes (Localization defined as >5% injected dose per gram tumor basis based on tissue distribution data) | Yes (Localization defined as >5% injected dose per gram tumor basis based on tissue distribution data) | 18 % injected dose per gram of tumor | lack of urinary bladder radioactivity | 1.14±0.01 % of ID/g | 0.6±0.1 % of ID/g | 48 h | uptake of NM404 into prostate tumor but not benign hyperplasia; also recorded: intense uptake of radioactivity in the prostate tumor
